Reference: patent US10590113B2, “6-hydroxy-4-oxo-1,4-dihydropyrimidine-5-carboxamides as APJ agonists” (priority 2016, dated 2020)
Read-outs that look alike come from different tables or passages of the source.

Molecular target: T1, human APJ receptor (Homo sapiens, UniProt P35414)
T1 construct: expressed in transfected cells; host or cells: HEK293
T1 sequence (P35414 1-380): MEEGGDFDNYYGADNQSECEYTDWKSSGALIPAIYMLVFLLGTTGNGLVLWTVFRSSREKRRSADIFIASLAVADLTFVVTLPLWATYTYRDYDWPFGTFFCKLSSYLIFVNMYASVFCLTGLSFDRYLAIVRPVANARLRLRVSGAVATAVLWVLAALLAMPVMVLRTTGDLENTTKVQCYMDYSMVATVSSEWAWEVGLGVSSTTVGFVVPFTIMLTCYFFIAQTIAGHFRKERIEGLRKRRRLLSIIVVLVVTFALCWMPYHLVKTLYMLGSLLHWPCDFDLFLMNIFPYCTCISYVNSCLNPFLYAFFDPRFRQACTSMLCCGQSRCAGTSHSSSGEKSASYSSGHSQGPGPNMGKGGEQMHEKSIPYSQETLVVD
Test: Intracellular cAMP Accumulation Assay (APJ hcAMP, HTRF)
Assay type: cell-based
Conditions: read-out: hAPJ cAMP EC50 Potency range
Outline: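 Stably transfected HEK293 cells (5,000/well) incubated 30 min at room temperature with serially diluted compound, […] and 2 μM forskolin. cAMP measured by HTRF after 60 min with detection reagents, quantified against a cAMP standard curve; EC50 from variable-slope sigmoidal fit of inhibition of forskolin-stimulated cAMP.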

[1] = human APJ, intracellular cAMP accumulation
[2] = human APJ, cAMP accumulation, potency range class

## COc1cccc(OC)c1-n1c(COC(C)C)nc(=O)c(C(=O)N2CCC(c3ccc(C#N)cc3)C2)c1O (single isomer, unassigned) [Example 107, 4-{1-[1-(2,6-dimethoxyphenyl)-6-hydroxy-4-oxo-2-[(propan-2-yloxy)methyl]-1,4-dihydropyrimidine-5-carbonyl]pyrrolidin-3-yl}benzonitrile]
[1]
  EC50: 0.01 to 10 nM

## CC[C@@H](c1cc(F)cc(F)c1)n1c(-c2cnn(C)c2)nc(=O)c(C(=O)N2CCC(c3ccc(F)cn3)C2)c1O (single isomer, unassigned) [Example 220]
[1]
  EC50: 0.01 to 10 nM

## CCc1cccc(CC)c1-n1c(-c2ccn(C3CC3)n2)nc(=O)c(C(=O)N2CCC(c3ncccc3F)C2)c1O (single isomer, unassigned) [Example 319, 2-(1-cyclopropyl-1H-pyrazol-3-yl)-1-(2,6-diethylphenyl)-5[3(3-fluoropyridin-2-yl)pyrrolidine-1-carbonyl]-6-hydroxy-1,4-dihydropyrimidin-4-one]
[2]
  EC50: 0.01 to 10 nM

## CCCCc1nc(=O)c(C(=O)N2CCC(Oc3cc(F)cc(F)c3Cl)CC2)c(O)n1-c1c(OC)cccc1OC [Example 386, 2-butyl-5-(4-(2-chloro-3,5-difluorophenoxy)piperidine-1-carbonyl)-1-(2,6-dimethoxyphenyl)-6-hydroxypyrimidin-4(1H)-one]
  EC50: 0.01 to 10 nM

## CCc1cccc(CC)c1-n1c(COC(C)C)nc(O)c(C(=O)N2CCC(c3ccc(Cl)nc3)CC2)c1=O [Example 222, 5-[4-(6-chloropyridin-3-yl)piperidine-1-carbonyl]-3-(2,6-diethylphenyl)-6-hydroxy-2-[(propan-2-yloxy)methyl]-3,4-dihydropyrimidin-4-one]
[2]
  EC50: 100 to 300 nM

## CCCCc1nc(=O)c(C(=O)N2CC[C@@H](c3ccccc3)C2)c(O)n1[C@H](C)c1ccccc1 [Example 132, 2-butyl-6-hydroxy-3-[(1R)-1-phenylethyl]-5-[(3S)-3-phenylpyrrolidine-1-carbonyl]-3,4-dihydropyrimidin-4-one]
[1]
  EC50: 10 to 100 nM

## CCCCc1nc(O)c(C(=O)N2CCC(c3ncc(Cl)cc3F)C2)c(=O)n1[C@@H](COC)c1ccccc1 (single isomer, unassigned) [Example 352]
[2]
  EC50: 0.01 to 10 nM

## CCCCc1nc(=O)c(C(=O)N2CC[C@@H](c3ccccc3)C2)c(O)n1-c1c(OC)ncnc1OC [Example 112, 2-butyl-3-(4,6-dimethoxypyrimidin-5-yl)-6-hydroxy-5-[(3S)-3-phenylpyrrolidine-1-carbonyl]-3,4-dihydropyrimidin-4-one]
[1]
  EC50: 0.01 to 10 nM

## CCCCc1nc(=O)c(C(=O)N2CC[C@H](c3ccccc3)C2)c(O)n1[C@@H](CCC)c1ccccc1 [Example 137, 2-butyl-6-hydroxy-3-[(1S)-1-phenylbutyl]-5-[(3R)-3-phenylpyrrolidine-1-carbonyl]-3,4-dihydropyrimidin-4-one]
[1]
  EC50: 10 to 100 nM

## CCCCc1nc(=O)c(C(=O)N2CC[C@H](c3ccccc3)C2)c(O)n1[C@@H](C)c1cccc(C#N)c1 [Example 138, 3-[(1S)-1-{2-butyl-4-hydroxy-6-oxo-5-[(3R)-3-phenylpyrrolidine-1-carbonyl]-1,6-dihydropyrimidin-1-yl}ethyl]benzonitrile]
[1]
  EC50: 10 to 100 nM

## COc1cccc(OC)c1-n1c(COC(C)(C)C)nc(=O)c(C(=O)N2CCC(c3ccccc3C#N)C2)c1O (single isomer, unassigned) [Example 369, 2-(1-(2-(tert-butoxymethyl)-1-(2,6-dimethoxyphenyl)-6-hydroxy-4-oxo-1,4-dihydropyrimidine-5-carbonyl)pyrrolidin-3-yl)benzonitrile]
  EC50: 0.01 to 10 nM

## CCc1cccc(CC)c1-n1c(-c2cnn(CC)c2)nc(=O)c(C(=O)N2CCC(c3ncc(Cl)cc3F)C2)c1O (single isomer, unassigned) [Example 313, 5-[3-(5-chloro-3-fluoropyridin-2-yl)pyrrolidine-1-carbonyl]-1-(2,6-diethylphenyl)-2-(1-ethyl-1H-pyrazol-4-yl)-6-hydroxy-1,4-dihydropyrimidin-4-one]
[2]
  EC50: 0.01 to 10 nM
